{"source": "patent US9273043B2", "about": "“TRPV1 antagonists including dihydroxy substituent and uses thereof” (Purdue Pharma L.P., priority 2011, dated 2016)", "system": "neuropathic mechanical hyperalgesia after partial sciatic nerve ligation", "experiment": "Seltzer model (partial sciatic nerve ligation) of neuropathic pain, paw withdrawal threshold", "format": "in vivo, rat", "details": "for % Reversal [mean ± SEM]: rat; for % reversal of neuropathic hyperalgesia / % reversal of neuropathic hyperalgesia, maximum analgesic efficacy: rat Seltzer model", "protocol": "In the Seltzer model, the partial sciatic nerve ligation model of neuropathic pain was used to produce neuropathic hyperalgesia in rats (Seltzer et al., “A Novel Behavioral Model of Neuropathic Pain Disorders Produced in Rats by Partial Sciatic Nerve Injury,” Pain 43:205-218 (1990)). Partial ligation of the left sciatic nerve was performed under isoflurane/O2 inhalation anaesthesia. Following induction of anesthesia, the left thigh of the male, 6-7 week old Jcl:SD rat was shaved. The sciatic nerve was exposed at high thigh level through a small incision and was carefully cleared of surrounding connective tissues at a site near the trocanther just distal to the point at which the posterior biceps semitendinosus nerve branches off of the common sciatic nerve. A 7-0 silk suture was inserted into the nerve with a ⅜ curved, reversed-cutting mini-needle and tightly ligated so that the dorsal ⅓ to ½ of the nerve thickness was held within the ligature. The wound was closed with a single muscle suture (4-0 nylon (Vicryl)) and vetbond tissue glue. The wound area was then dusted with antibiotic powder. Sham treatment involved an identical surgical procedure except that the sciatic nerve was not manipulated or ligated.\nFollowing surgery, animals were weighed and placed on a warm pad until they recovered from anesthesia. Animals were then returned to their home cages until behavioral testing began. The animal was assessed for response to noxious mechanical stimuli by determining PWT for the rear paw of the animal, as described below, prior to surgery (baseline), then immediately prior to and 1, 3, 5, 7, and 24 hours after oral drug-in-vehicle administration (for day 1). Thus, the 24 hour time point was the start of the next day when drug-in-vehicle was again orally administered (24 hours after the prior administration). On days 2 and 3, PWT response was determined 1, 3, and 24 hours thereafter. Percentage reversal of neuropathic hyperalgesia at each of the specified times after administration was defined as: […]\nAdditionally, 10 mg/kg of pregabalin (Kemprotec, Ltd., Middlesbrough, UK), an anticonvulsant accepted for relief of particular neuropathic pain, in vehicle and the vehicle alone (0.5% weight/volume methylcellulose (400cP, Wako Pure Chemical Industries, Ltd.)/aqueous solution) were orally administered as controls. […] Ten rats that underwent partial ligation of the left sciatic nerve were used for each treatment group. Dunnett's test was conducted for the % reversal; values with p<0.05 were considered to be statistically significant.\nAdditionally, as a control the rats underwent sham surgery in which an identical surgical procedure was followed with regard to the right thigh but the sciatic nerve was neither manipulated nor ligated.\nResponse to Mechanical Stimuli as an Assessment of Mechanical Hyperalgesia: The paw pressure assay was used to assess mechanical hyperalgesia. […] Biochem. and Behavior 31:451-455 (1988). The maximum weight that could be applied to the hind paw was set at 250 g and the end point was taken as complete withdrawal of the paw. PWT was determined once for each rat at each time point and either only the affected (ipsilateral) paw was tested, or both the ipsilateral and contralateral (non-injured) paw were tested.", "data": [{"smiles": "CC1CN(c2ncc(C(O)CO)cc2F)CCN1C(=O)Nc1nc2cc(F)ccc2s1.O=C(O)C=CC(=O)O", "note": "(centres unmarked)", "values": [{"measurement": "% Reversal [mean ± SEM]", "setting": "1 mg/kg oral once daily, 1 hours (day 2) after administration", "result": "12.04 ± 4.92", "unit": "%"}, {"measurement": "% Reversal [mean ± SEM]", "setting": "1 mg/kg oral once daily, 1 hours (day 3) after administration", "result": "6.44 ± 6.50", "unit": "%"}, {"measurement": "% Reversal [mean ± SEM]", "setting": "1 mg/kg oral once daily, 3 hours (day 2) after administration", "result": "12.84 ± 4.12", "unit": "%"}, {"measurement": "% Reversal [mean ± SEM]", "setting": "1 mg/kg oral once daily, 3 hours (day 3) after administration", "result": "9.58 ± 5.23", "unit": "%"}, {"measurement": "% Reversal [mean ± SEM]", "setting": "1 mg/kg oral once daily, 24 hours (0 hrs day 2) after administration", "result": "0.71 ± 2.46", "unit": "%"}, {"measurement": "% Reversal [mean ± SEM]", "setting": "1 mg/kg oral once daily, 24 hours (0 hrs day 3) after administration", "result": "4.89 ± 2.68", "unit": "%"}, {"measurement": "% Reversal [mean ± SEM]", "setting": "1 mg/kg oral once daily, 24 hours (0 hrs day 4) after administration", "result": "0.51 ± 3.15", "unit": "%"}, {"measurement": "% Reversal [mean ± SEM]", "setting": "1 mg/kg oral, 1 hours (day 1) after administration", "result": "14.60 ± 4.26", "unit": "%"}, {"measurement": "% Reversal [mean ± SEM]", "setting": "1 mg/kg oral, 3 hours (day 1) after administration", "result": "17.04 ± 4.91", "unit": "%"}, {"measurement": "% Reversal [mean ± SEM]", "setting": "1 mg/kg oral, 5 hours (day 1) after administration", "result": "11.39 ± 3.13", "unit": "%"}, {"measurement": "% Reversal [mean ± SEM]", "setting": "1 mg/kg oral, 7 hours (day 1) after administration", "result": "3.04 ± 4.49", "unit": "%"}, {"measurement": "% Reversal [mean ± SEM]", "setting": "3 mg/kg oral once daily, 1 hours (day 2) after administration", "result": "12.57 ± 2.38", "unit": "%"}, {"measurement": "% Reversal [mean ± SEM]", "setting": "3 mg/kg oral once daily, 1 hours (day 3) after administration", "result": "11.80 ± 3.29", "unit": "%"}, {"measurement": "% Reversal [mean ± SEM]", "setting": "3 mg/kg oral once daily, 3 hours (day 2) after administration", "result": "17.14 ± 5.38", "unit": "%"}, {"measurement": "% Reversal [mean ± SEM]", "setting": "3 mg/kg oral once daily, 3 hours (day 3) after administration", "result": "17.34 ± 3.91", "unit": "%"}, {"measurement": "% Reversal [mean ± SEM]", "setting": "3 mg/kg oral once daily, 24 hours (0 hrs day 2) after administration", "result": "−5.34 ± 4.20", "unit": "%"}, {"measurement": "% Reversal [mean ± SEM]", "setting": "3 mg/kg oral once daily, 24 hours (0 hrs day 3) after administration", "result": "−3.85 ± 4.61", "unit": "%"}, {"measurement": "% Reversal [mean ± SEM]", "setting": "3 mg/kg oral once daily, 24 hours (0 hrs day 4) after administration", "result": "−1.95 ± 2.97", "unit": "%"}, {"measurement": "% Reversal [mean ± SEM]", "setting": "3 mg/kg oral, 1 hours (day 1) after administration", "result": "15.69 ± 4.62", "unit": "%"}, {"measurement": "% Reversal [mean ± SEM]", "setting": "3 mg/kg oral, 3 hours (day 1) after administration", "result": "18.39 ± 1.67", "unit": "%"}, {"measurement": "% Reversal [mean ± SEM]", "setting": "3 mg/kg oral, 5 hours (day 1) after administration", "result": "12.22 ± 1.89", "unit": "%"}, {"measurement": "% Reversal [mean ± SEM]", "setting": "3 mg/kg oral, 7 hours (day 1) after administration", "result": "7.65 ± 2.79", "unit": "%"}, {"measurement": "% Reversal [mean ± SEM]", "setting": "10 mg/kg oral once daily, 1 hours (day 2) after administration", "result": "27.41 ± 4.56", "unit": "%"}, {"measurement": "% Reversal [mean ± SEM]", "setting": "10 mg/kg oral once daily, 1 hours (day 3) after administration", "result": "23.36 ± 4.69", "unit": "%"}, {"measurement": "% Reversal [mean ± SEM]", "setting": "10 mg/kg oral once daily, 3 hours (day 2) after administration", "result": "29.12 ± 5.44", "unit": "%"}, {"measurement": "% Reversal [mean ± SEM]", "setting": "10 mg/kg oral once daily, 3 hours (day 3) after administration", "result": "28.91 ± 5.72", "unit": "%"}, {"measurement": "% Reversal [mean ± SEM]", "setting": "10 mg/kg oral once daily, 24 hours (0 hrs day 2) after administration", "result": "3.38 ± 3.97", "unit": "%"}, {"measurement": "% Reversal [mean ± SEM]", "setting": "10 mg/kg oral once daily, 24 hours (0 hrs day 3) after administration", "result": "2.87 ± 4.62", "unit": "%"}, {"measurement": "% Reversal [mean ± SEM]", "setting": "10 mg/kg oral once daily, 24 hours (0 hrs day 4) after administration", "result": "11.09 ± 3.45", "unit": "%"}, {"measurement": "% Reversal [mean ± SEM]", "setting": "10 mg/kg oral, 1 hours (day 1) after administration", "result": "32.51 ± 5.00", "unit": "%"}, {"measurement": "% Reversal [mean ± SEM]", "setting": "10 mg/kg oral, 3 hours (day 1) after administration", "result": "34.17 ± 5.60", "unit": "%"}, {"measurement": "% Reversal [mean ± SEM]", "setting": "10 mg/kg oral, 5 hours (day 1) after administration", "result": "19.59 ± 3.04", "unit": "%"}, {"measurement": "% Reversal [mean ± SEM]", "setting": "10 mg/kg oral, 7 hours (day 1) after administration", "result": "17.06 ± 2.95", "unit": "%"}, {"measurement": "% reversal of neuropathic hyperalgesia", "setting": "oral 1 mg/kg once daily, day 2, 3 hour time point", "result": 12.84, "unit": "%"}, {"measurement": "% reversal of neuropathic hyperalgesia, maximum analgesic efficacy", "setting": "oral 1 mg/kg, single (day 1) administration", "result": 17.04, "unit": "%"}, {"measurement": "% reversal of neuropathic hyperalgesia", "setting": "oral 3 mg/kg once daily, day 2, 3 hour time point", "result": 17.14, "unit": "%"}, {"measurement": "% reversal of neuropathic hyperalgesia", "setting": "oral 3 mg/kg once daily, day 3, 3 hour time point", "result": 17.34, "unit": "%"}, {"measurement": "% reversal of neuropathic hyperalgesia, maximum analgesic efficacy", "setting": "oral 3 mg/kg, 3 h after day 1 administration", "result": 18.39, "unit": "%"}, {"measurement": "% reversal of neuropathic hyperalgesia", "setting": "oral 10 mg/kg once daily, day 2, 3 hour time point", "result": 29.12, "unit": "%"}, {"measurement": "% reversal of neuropathic hyperalgesia", "setting": "oral 10 mg/kg once daily, day 3, 3 hour time point", "result": 28.91, "unit": "%"}, {"measurement": "% reversal of neuropathic hyperalgesia", "setting": "oral 10 mg/kg, 3 h after day 1 administration (maximum)", "result": 34.17, "unit": "%"}]}]}
